Assay results published in patent US20210052741A1, “GENE THERAPY METHODS AND COMPOSITIONS USING AUXOTROPHIC REGULATABLE CELLS” (AUXOLYTIC LTD, priority 2018, published 2021).
Where “and” joins values, the source holds several entries; their conditions need not be identical. Equal entries are not always repeated.

Legend:
Assay type in all cases: cell-based, human
[1] = test system: GFP- UMPS^WT/WT hESCs; assay: 5-FOA resistance in hESC co-culture (FACS); conditions: for Viable cell counts, GFP−: co-culture
Excerpt: (§1) To assess resistance to 5-FOA, the UMPS-KO hESCs were genetically engineered to express GFP from an expression cassette integrated into a safe-harbor locus for easier identification in co-culture with UMPS-WT cells.
(§2) These UMPS^KO/KO hESCs were mixed with UMPS^WT/WT cells that were not expressing GFP and followed up by fluorescence-activated cell sorting (FACS) analysis in the presence of different concentrations of 5-FOA. Table 16 provides counts of viable GFP+ and GFP− cells after culture with different 5-FOA concentrations.

[2] = test system: GFP+ UMPS^KO/KO hESCs; assay: 5-FOA resistance in hESC co-culture (FACS); conditions: for Viable cell counts, GFP+: co-culture
Excerpt: as §1, §2

[3] = test system: UMPS^KO/KO hESCs; assay: Auxotrophy assay with different uridine concentrations; conditions: for Viable cell counts: day 4 after seeding
Experimental: The UMPS locus was disrupted in the hESCs by electroporation of Cas9 RNP and selection of a clone with InDels in exon 1 as evaluated by amplification and Sanger sequencing of the genomic locus. For gene editing, hESCs were treated with 10 μm ROCK inhibitor (Y-27632) for 24 hours before electroporation. Cells at 70-80% confluence were harvested with ACCUTASE® solution (Life Technologies). 500,000 cells were used per reaction with a SpCas9 concentration of 150 μg/mL (Integrated DNA Technologies) and a Cas9:sgRNA molar ratio of 1:3 and electroporation performed in P3 Primary Cell solution (Lonza) in 16-well NUCLEOCUVETTE™ Strips in the 4D NUCLEOFECTOR system (Lonza). Immediately after electroporation, cells were transferred into one well of a […]® protein mixture (Corning, Inc.)-coated 24 well plate containing 500 μl of mTeSR™ media ([…] Technologies) with 10 μM Y-27632. Media was changed 24 hours after editing and Y-27632 was removed 48 hours after.
An auxotrophy assay was performed over four days with different concentrations of uridine. Microscope photos of wells were taken on day 4 after seeding UMPS^KO/KO hESCs at similar densities and culturing in the presence of different uridine concentrations. […] Quantification of viable cells on day 4 after seeding to evaluate the effect of different uridine concentrations is shown in Table 15.

[4] = test system: UMPS^KO/KO/GFP^+ K562 cells; assay: Auxotrophy assay in K562 cells
Experimental: The sorted UMPS^KO/KO/GFP^+ cell population were subjected to assays evaluating their auxotrophy and their resistance to 5-FOA. The cells were split into samples of equal numbers and cultured in the presence of different concentrations of Uridine or without. […] Cell growth was inhibited at a lower concentration (25 μg/ml) while cell numbers declined with a lower concentration or no Uridine (FIG. 6E).

[5] = test system: Mock T cells; assay: Growth time course with/without UMP or uridine; conditions: metabolite 250 μg/ml
Experimental: (§3) Genomic DNA was harvested using QUICKEXTRACT™ DNA Extraction Kit (Epicentre). Cells were counted on an automated cell counter using Trypan blue staining or on a CytoFLEX flow cytometer (Beckman Coulter) with automatic plate reader using COUNTBRIGHT™ beads (ThermoFisher) as a reference for normalizing the values. Alternatively, cells were analyzed after staining with fluorochrome-labelled antibodies (Biolegend) on an ACCURI™ C6 flow cytometer (BD Biosciences), which also measures volumes, or a FACS ARIA™ II SORP cell sorter (BD Biosciences). Data was analyzed using Excel (Microsoft) and FlowJo software (Tree Star).
(§4) T Cells were electroporated and edited as in Example 2 and allowed to recover for a 4-day period in medium with serum, uridine, and UMP. On day 4, cells were shifted to UMP, uridine, or uracil source media.
(§5) To evaluate whether the UMPS knockout leads to differential cell proliferation if cultured without the addition of Uridine or Uridine monophosphate (UMP), the cell counts in culture were followed over time by automatic cell counting with Trypan blue staining. UMPS knockout led to lower cell counts from day 2 after electroporation, compared to cells that were mock electroporated or electroporated using Cas9 targeting a different genomic locus (i.e., CCR5) (FIG. 5B).

[6] = test system: CCR5 knockout T cells; assay: Growth time course with/without UMP or uridine; conditions: metabolite 250 μg/ml
Experimental: as §3, §4, §5

[7] = test system: UMPS knockout T cells; assay: Growth time course with/without UMP or uridine
Experimental: as §3, §4, §5

[8] = UMPS knockout, metabolite 250 μg/ml

O=C(O)c1[nH]c(=O)[nH]c(=O)c1F [5-FOA, 5-fluoroorotic acid]
sensitivity of UMPS-WT cells to 5-FOA ([1]; all tested concentrations (0.25-25 μg/ml)): sensitive to all tested 5-FOA concentrations | Viable cell counts, GFP− ([1]; 5-FOA 0.25 μg/ml): 5180 | Viable cell counts, GFP− ([1]; 5-FOA 2.5 μg/ml): 687.5 | Viable cell counts, GFP− ([1]; 5-FOA 25 μg/ml): 334.02 | tolerance of UMPS-KO cells to 5-FOA ([2]; 0.25 μg/ml): tolerated the concentration of 0.25 μg/ml well | Viable cell counts, GFP+ ([2]; 5-FOA 0.25 μg/ml): 142820 | Viable cell counts, GFP+ ([2]; 5-FOA 2.5 μg/ml): 11812.5 | Viable cell counts, GFP+ ([2]; 5-FOA 25 μg/ml): 8455.98 | proliferation of UMPS-KO cells in 5-FOA ([2]; concentrations above 0.25 μg/ml): impaired proliferation at higher concentrations | cells GFP+ ([2]; groups with 5-FOA (54.8% without 5-FOA)): 95.0%

O=c1ccn([C@@H]2O[C@H](CO)[C@@H](O)[C@H]2O)c(=O)[nH]1 [Uridine]
proliferation (microscope photos, day 4) ([3]; 2.5-250 μg/ml uridine): proliferated | Viable cell counts ([3]; uridine 2.5 μg/ml): 31040 and 38065 and 45189 | Viable cell counts ([3]; uridine 25 μg/ml): 31810 and 39635 and 36283 | Viable cell counts ([3]; uridine 250 μg/ml): 19147 and 31050 and 33955 | Number of cells per ml, Day 1 ([4]; 2.5 ug/ml Uridine): 57.83 cells per ml and 49.52 cells per ml and 40.56 cells per ml | Number of cells per ml, Day 1 ([4]; 25 ug/ml Uridine): 60.92 cells per ml and 69.81 cells per ml and 58.10 cells per ml | Number of cells per ml, Day 1 ([4]; 250 ug/ml Uridine): 83.41 cells per ml and 109.11 cells per ml and 64.28 cells per ml | Number of cells per ml, Day 8 ([4]; 250 ug/ml Uridine): 631.12 cells per ml and 629.35 cells per ml and 318.17 cells per ml | cell growth ([4]; Uridine 25 μg/ml): inhibited | cell growth ([4]; Uridine 250 μg/ml): expanded rapidly | cell numbers ([4]; lower Uridine concentration (2.5 μg/ml) or no Uridine): declined | Cell density, Day 1 [5]: 9.78E+05 cells per ml | Cell density, Day 2 [5]: 1.98E+06 cells per ml | Cell density, Day 4 [5]: 3.90E+06 cells per ml | Cell density, Day 6 [5]: 4.91E+06 cells per ml | Cell density, Day 8 [5]: 4.09E+06 cells per ml | Cell density, Day 1 [6]: 9.67E+05 cells per ml | Cell density, Day 2 [6]: 1.71E+06 cells per ml | Cell density, Day 4 [6]: 3.70E+06 cells per ml | Cell density, Day 6 [6]: 3.92E+06 cells per ml | Cell density, Day 8 [6]: 3.96E+06 cells per ml | Cell density, Day 1 [7, 8]: 7.69E+05 cells per ml | Cell density, Day 2 [7, 8]: 1.59E+06 cells per ml | Cell density, Day 4 [7, 8]: 3.43E+06 cells per ml | Cell density, Day 6 [7, 8]: 3.79E+06 cells per ml | Cell density, Day 8 [7, 8]: 3.17E+06 cells per ml | Number of viable cells per ml, Day 1 [7, 8]: 769000 cells per ml | Number of viable cells per ml, Day 2 [7, 8]: 1590000 cells per ml | Number of viable cells per ml, Day 4 [7, 8]: 3430000 cells per ml | Number of viable cells per ml, Day 6 [7, 8]: 3790000 cells per ml | Number of viable cells per ml, Day 8 [7, 8]: 3170000 cells per ml | growth of UMPS edited culture ([7]; exogenous uracil source 250 μg/ml): rescued the growth of an UMPS edited culture to the same level as mock edited cells | cell proliferation after UMPS knockout ([7]; supplemented at 250 μg/ml): not impaired
